# Read-outs that look alike come from different tables or passages of the source. Marks after values point to notes of the source that are not given here.
# Columns and labels:
# [1] = Brain drug concentrations 60 min after single oral dose (LC-MS/MS); assay type: in vivo, rat; details: for concentration at 60 min: brain
# Procedure: In vivo methods employed for pharmacokinetic studies were identical to those described for food intake studies except that after dosing, rats were not placed into new cages with grid floors. At 60 min after dosing (and 30 min after food access), rats were anesthetized with isoflurane, blood was collected via cardiac puncture, and brains were removed from the cranium. Blood samples were dispensed into sodium heparinized vials and capped and stored at 4 °C. Plasma was separated from formed elements in blood by centrifugation (10 min at 3,000×g) and frozen. Brains were rinsed with ice-cold phosphate-buffered saline, blotted dry, weighed, and frozen. Plasma and brain samples were stored at −80 °C prior to bioanalytical analysis.
# Brain samples were thawed on ice, placed into 50 mL plastic conical tubes, and two volumes of purified water/gram of brain was added. Brains were homogenized using a mechanical variable speed tissue homogenizer; 50 μL of brain homogenate was transferred to a 1-mL plastic tube. A volume of acetonitrile (200 μL) containing internal standard was added to brain homogenate, mixed by vortex, and centrifuged (15 min at 3,700 rpm). […] Supernatants were analysed for lorcaserin, AR630, phentermine, dexfenfluramine, and the major metabolite of dexfenfluramine, norfenfluramine. Compound concentrations were determined using a LC-MS/MS method. Analytes were separated by reverse phase chromatography (Kinetex 3 × 30 mm, C18, 2.6 μm, 100 Å, HPLC Column, Phenomenex, Torrance, CA) using a binary gradient on a Shimadzu LC system (Shimadzu Corp., Columbia, MD). The gradient consisted of 0.1 % formic acid in water and 0.1 % formic acid in acetonitrile with a flow rate of 650 μL/min.
# 5-HT2B [2] = biological target: T1, 5-HT2B (Homo sapiens, UniProt P41595); experiment: 125I-DOI binding at 5-HT2B; details: internally generated data
# T1 sequence (P41595 whole entry, species assumed): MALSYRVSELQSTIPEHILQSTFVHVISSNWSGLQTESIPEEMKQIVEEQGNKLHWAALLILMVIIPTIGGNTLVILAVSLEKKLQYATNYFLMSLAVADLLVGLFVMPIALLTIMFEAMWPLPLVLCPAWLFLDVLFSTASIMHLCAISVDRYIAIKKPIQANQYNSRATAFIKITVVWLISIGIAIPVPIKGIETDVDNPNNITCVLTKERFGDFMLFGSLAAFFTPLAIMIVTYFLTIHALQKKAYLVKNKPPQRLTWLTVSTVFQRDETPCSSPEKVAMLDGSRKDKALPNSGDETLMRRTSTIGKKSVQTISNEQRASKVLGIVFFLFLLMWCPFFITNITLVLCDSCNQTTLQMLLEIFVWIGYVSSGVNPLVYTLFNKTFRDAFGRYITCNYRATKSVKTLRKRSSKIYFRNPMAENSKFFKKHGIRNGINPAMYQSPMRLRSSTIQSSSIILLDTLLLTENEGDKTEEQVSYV
# 5-HT2A [3] = biological target: T2, 5-HT2A (Homo sapiens, UniProt P28223); experiment: Functional activity at 5-HT2A; assay type: biochemical; details: internally generated data
# T2 sequence (P28223 whole entry): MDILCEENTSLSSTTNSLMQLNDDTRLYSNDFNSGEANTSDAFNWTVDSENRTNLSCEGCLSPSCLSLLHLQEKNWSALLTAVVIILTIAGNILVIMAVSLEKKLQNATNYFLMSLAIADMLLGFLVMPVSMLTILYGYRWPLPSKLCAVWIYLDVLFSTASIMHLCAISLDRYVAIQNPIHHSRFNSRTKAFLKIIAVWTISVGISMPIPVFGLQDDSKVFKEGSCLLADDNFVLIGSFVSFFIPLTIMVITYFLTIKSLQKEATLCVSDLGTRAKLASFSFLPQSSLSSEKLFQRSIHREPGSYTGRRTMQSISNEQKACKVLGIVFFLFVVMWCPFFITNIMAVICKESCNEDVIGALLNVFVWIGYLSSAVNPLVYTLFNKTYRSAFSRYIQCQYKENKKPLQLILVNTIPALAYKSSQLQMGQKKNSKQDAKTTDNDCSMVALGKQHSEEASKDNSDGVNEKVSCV
# 5-HT2A [4] = biological target: T2, 5-HT2A; experiment: 125I-DOI binding at 5-HT2A; details: internally generated data
# 5-HT2B [5] = biological target: T1, 5-HT2B; experiment: Functional activity at 5-HT2B; assay type: biochemical; details: internally generated data
# 5-HT2C [6] = biological target: T3, 5-HT2C (Homo sapiens, UniProt P28335); experiment: 125I-DOI binding at 5-HT2C; details: internally generated data
# T3 sequence (P28335 33-458): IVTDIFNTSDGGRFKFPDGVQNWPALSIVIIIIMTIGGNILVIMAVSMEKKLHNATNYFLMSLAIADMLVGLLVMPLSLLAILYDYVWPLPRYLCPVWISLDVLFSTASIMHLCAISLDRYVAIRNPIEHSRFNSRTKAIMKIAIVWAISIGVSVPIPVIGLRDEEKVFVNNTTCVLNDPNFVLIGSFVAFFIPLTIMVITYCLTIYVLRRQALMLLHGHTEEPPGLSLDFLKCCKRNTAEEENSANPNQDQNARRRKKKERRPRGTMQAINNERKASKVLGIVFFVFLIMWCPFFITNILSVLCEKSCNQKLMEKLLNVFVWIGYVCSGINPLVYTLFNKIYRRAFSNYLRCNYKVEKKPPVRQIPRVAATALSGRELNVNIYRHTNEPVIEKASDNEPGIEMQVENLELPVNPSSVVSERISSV
# food intake in the rat = experiment: Food intake in food-deprived rats: single-drug dose-responses and isobolographic analysis; assay type: in vivo; details: PO, 18 h food-deprived rat, 30 min intake measured 1 h after drug; from logarithmic regressions; read-out: ED50, inhibition of food intake
# Procedure: Male Sprague–Dawley rats (Harlan, San Diego, CA) weighing 250–350 g were used for behavioural studies. Upon arrival at the test facility, animals were triple housed within a holding room controlled for humidity, temperature, and light (lights off 1800–0600 hours). Rats received food (2018SX Teklad Rodent Diet) and water ad libitum unless stated otherwise. Over the course of all studies, rats were re-used up to four times, with at least one week of washout between tests. Rats were assigned to treatment groups pseudo-randomly from test to test. One week prior to initial drug testing, all rats were subject to a single food intake test which was identical to all subsequent drug tests, except that all rats received vehicle administration. Group size for all studies, including brain sampling, was eight.
# Eighteen hours prior to food intake testing (1600 hours), food was removed from home cages. On the next day, animals were weighed and placed into cages with grid floors at 1000 hours, and allowed to acclimate to these cages for a 90-min period with free access to water and no food. At 1130 hours, rats were injected with compounds via oral gavage. Thirty minutes after injection (1200 hours), animals were allowed access to food. Food was then weighed at 30 min after food exposure (1 h after drug administration). Upon test conclusion, rats were returned to home cages with ad libitum access to food and water.
# Doses were selected based upon previous in-house experience with these compounds and ascended in twofold steps. Two subsequent studies were run for each isobologram, with dose–responses of each compound pair run in combination with a fixed, low dose of the other (phentermine 1 mg/kg; AR630 1 mg/kg; dexfenfluramine 0.5 mg/kg; lorcaserin 1 mg/kg). To approximate the true experimental errors in these experiments, a bootstrapping with replacement approach was used (Huber [1981]; Launer and Wilkinson [1979]) in which five data sets were generated from random samples of the measured data points for both the individual dose–responses and for each drug/dose combination. […] A line of additivity with confidence limits was then drawn between the dose–responses of each compound alone.
# 5-HT2C [7] = biological target: T3, 5-HT2C; experiment: Functional activity at 5-HT2C; assay type: biochemical; details: internally generated data
# [8] = combining topiramate with phentermine, humans; ref Qsymia Drug Label information; cited from earlier work
# [9] = when administered alone; cited from earlier work
# [10] = read-out: intrinsic activity (IA)
smiles,measurement,setting,value
C[C@@H]1CNCCN1c1cc(Cl)ccc1F [AR630],"Fold-change in brain concentration, combination vs alone","[1]; AR630 1 mg/kg PO with phentermine 1 mg/kg, 60 min, rat",1.12
same,concentration at 60 min,"[1]; Sprague-Dawley, rat, oral, AR630 1 mg/kg PO with phentermine 1 mg/kg, 60 min, rat, mean ± SEM, read-out: Brain concentration, combination",92 ± 25 ng/g
same,concentration at 60 min,"[1]; Sprague-Dawley, rat, po, 1 mg/kg, AR630 1 mg/kg PO alone, 60 min, rat, mean ± SEM, read-out: Brain concentration, alone",82 ± 14 ng/g
same,Ki,5-HT2B [2],100 nM
same,EC50,5-HT2A [3],400 nM
same,Emax,5-HT2A [3]; [10],60%
same,Ki,5-HT2A [4],120 nM
same,EC50,5-HT2B [5],1000 nM
same,Emax,5-HT2B [5]; [10],< 10%
same,Ki,5-HT2C [6],4 nM
same,ED50,food intake in the rat,4.25 mg/kg
same,EC50,5-HT2C [7],10 nM
same,Emax,5-HT2C [7]; [10],100%
"CCN[C@@H](C)Cc1cccc(C(F)(F)F)c1 [Dexfenfluramine, (S)+-fenfluramine]",concentration at 60 min,"[1]; Sprague-Dawley, rat, oral, 0.5 mg/kg, dexfenfluramine 0.5 mg/kg PO alone, 60 min, rat, mean ± SEM, read-out: Brain concentration, alone",130 ± 13 ng/g
same,concentration at 60 min,"[1]; Sprague-Dawley, rat, oral, dexfenfluramine 0.5 mg/kg PO with phentermine 1 mg/kg, 60 min, rat, mean ± SEM, read-out: Brain concentration, combination",141 ± 19 ng/g
same,"Fold-change in brain concentration, combination vs alone","[1]; dexfenfluramine 0.5 mg/kg PO with phentermine 1 mg/kg, 60 min, rat",1.08
same,ED50,food intake in the rat,1.44 mg/kg
C[C@H]1CNCCc2ccc(Cl)cc21 [Lorcaserin],concentration at 60 min,"[1]; Sprague-Dawley, rat, oral, 1 mg/kg, lorcaserin 1 mg/kg PO alone, 60 min, rat, mean ± SEM, read-out: Brain concentration, alone",1380 ng/g
same,concentration at 60 min,"[1]; Sprague-Dawley, rat, oral, lorcaserin 1 mg/kg PO with phentermine 1 mg/kg, 60 min, rat, mean ± SEM, read-out: Brain concentration, combination",1440 ng/g
same,"Fold-change in brain concentration, combination vs alone","[1]; lorcaserin 1 mg/kg PO with phentermine 1 mg/kg, 60 min, rat",1.05
same,ED50,food intake in the rat,1.98 mg/kg
"CC(N)Cc1cccc(C(F)(F)F)c1 (centres unmarked) [Norfenfluramine, norfenfluramine]",brain concentration of metabolite relative to parent dexfenfluramine,"[1]; after dexfenfluramine PO, 60 min, rat",approximately sixfold
same,"Brain concentration, alone","[1]; metabolite norfenfluramine after dexfenfluramine 0.5 mg/kg PO alone, 60 min, rat, mean ± SEM",805 ± 50 ng/g
same,"Fold-change in brain concentration, combination vs alone","[1]; metabolite norfenfluramine after dexfenfluramine 0.5 mg/kg PO with phentermine 1 mg/kg, 60 min, rat",0.94
same,"Brain concentration, combination","[1]; metabolite norfenfluramine after dexfenfluramine 0.5 mg/kg PO with phentermine 1 mg/kg, 60 min, rat, mean ± SEM",760 ± 27 ng/g
CC(C)(N)Cc1ccccc1 [Phentermine],increase in phentermine area under the curve,[8],42%
same,Kp at 60 min,"[1]; Sprague-Dawley, brain/plasma, oral, phentermine dosed alone or in the various combinations, rat (data not shown), read-out: brain/plasma ratio",~13
same,concentration at 60 min,"[1]; Sprague-Dawley, rat, oral, 1 mg/kg, phentermine 1 mg/kg PO alone, 60 min, rat, AR630 study, mean ± SEM, read-out: Brain concentration, alone",226 ± 32 ng/g
same,concentration at 60 min,"[1]; Sprague-Dawley, rat, oral, 1 mg/kg, phentermine 1 mg/kg PO alone, 60 min, rat, dexfenfluramine study, mean ± SEM, read-out: Brain concentration, alone",298 ± 29 ng/g
same,concentration at 60 min,"[1]; Sprague-Dawley, rat, oral, 1 mg/kg, phentermine 1 mg/kg PO alone, 60 min, rat, lorcaserin study, mean ± SEM, read-out: Brain concentration, alone",298 ± 29 ng/g
same,concentration at 60 min,"[1]; Sprague-Dawley, rat, oral, phentermine 1 mg/kg PO with AR630 1 mg/kg, 60 min, rat, mean ± SEM, read-out: Brain concentration, combination",866 ± 120 ng/g
same,concentration at 60 min,"[1]; Sprague-Dawley, rat, oral, phentermine 1 mg/kg PO with dexfenfluramine 0.5 mg/kg, 60 min, rat, mean ± SEM, read-out: Brain concentration, combination",787 ± 57 ng/g
same,concentration at 60 min,"[1]; Sprague-Dawley, rat, oral, phentermine 1 mg/kg PO with lorcaserin 1 mg/kg, 60 min, rat, mean ± SEM, read-out: Brain concentration, combination",335 ± 18 ng/g
same,"Fold-change in brain concentration, combination vs alone","[1]; phentermine 1 mg/kg PO with AR630 1 mg/kg, 60 min, rat",3.80**
same,"Fold-change in brain concentration, combination vs alone","[1]; phentermine 1 mg/kg PO with AR630 1 mg/kg, 60 min, rat, listed as phentermine",3.8
same,"Fold-change in brain concentration, combination vs alone","[1]; phentermine 1 mg/kg PO with dexfenfluramine 0.5 mg/kg, 60 min, rat",2.60**
same,"Fold-change in brain concentration, combination vs alone","[1]; phentermine 1 mg/kg PO with dexfenfluramine 0.5 mg/kg, 60 min, rat, listed as phentermine",2.6
same,"Fold-change in brain concentration, combination vs alone","[1]; phentermine 1 mg/kg PO with lorcaserin 1 mg/kg, 60 min, rat",1.12
same,"Fold-change in brain concentration, combination vs alone","[1]; phentermine 1 mg/kg PO with lorcaserin 1 mg/kg, 60 min, rat, listed as phentermine",1.1
same,fraction of dose excreted as unchanged phentermine in urine,[9],70–80%
same,ED50,food intake in the rat,2.45 mg/kg

# — publication PMC4425807, “Investigating interactions between phentermine, dexfenfluramine, and 5-HT2C agonists, on food intake in the rat” (Psychopharmacology, 2014)
